Key:
[1] = system: rice seedling; conditions: according to Ueno, et al.; cited from earlier work
[2] = biological target: T1, (S)-ABA 8′-hydroxylase (Arabidopsis thaliana, UniProt Q9FH76); conditions: according to Ueno, et al.; cited from earlier work
T1 sequence (Q9FH76 1-463): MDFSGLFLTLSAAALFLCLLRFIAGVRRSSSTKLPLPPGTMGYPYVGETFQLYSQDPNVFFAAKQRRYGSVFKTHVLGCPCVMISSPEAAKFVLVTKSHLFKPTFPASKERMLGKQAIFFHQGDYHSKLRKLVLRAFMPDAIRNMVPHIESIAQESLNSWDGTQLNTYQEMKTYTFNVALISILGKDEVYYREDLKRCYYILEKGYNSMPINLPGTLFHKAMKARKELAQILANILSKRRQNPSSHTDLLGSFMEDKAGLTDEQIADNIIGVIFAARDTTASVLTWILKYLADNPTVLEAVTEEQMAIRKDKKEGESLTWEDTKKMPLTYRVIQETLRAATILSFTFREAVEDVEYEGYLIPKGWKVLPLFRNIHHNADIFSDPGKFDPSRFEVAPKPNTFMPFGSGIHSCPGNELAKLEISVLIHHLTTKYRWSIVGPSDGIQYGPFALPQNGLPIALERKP

[3] = system: Arabidopsis thaliana seed; experiment: Seed germination assay for testing Examples 29-46; format: in vivo; parameters: key: + + + +: The other derivatives were scored by potency relative to S-ABA.; (S)-ABA potency = + + +.; + +: The other derivatives were scored by potency relative to S-ABA.; ++: The other derivatives were scored by potency relative to S-ABA.; +: The other derivatives were scored by potency relative to S-ABA.; −− = no effect; conditions: 0.16-40 μM in 6-well plates, 4 days after vernalization, compared with (S)-ABA
Experimental: Seed Germination Assay for Testing Examples 29-46 To determine the germination inhibition potency of the (±)-ABA derivatives, germination assays were performed with the model plant Arabidopsis thaliana. Arabidopsis seed was sterilized by soaking in 70% ethanol solution for 5 minutes, followed by 5% sodium hypochlorite solution for 10 minutes. The seeds were then washed three times with sterile water. The test compounds were tested in germination assay at five concentrations (0.16, 0.64, 2.5, 10, and 40 μM) with (S)-ABA (0.16, 0.64 and 2.5 μM) as a control in 6-well plates. DMSO stock solutions of (S)-ABA and the derivatives at 1,000 fold of the test concentrations were prepared. The stock solutions (5 μL) of (S)-ABA and the derivatives were added to the wells in the assay plate with 0.8% agar solutions of ½ Murashige and Skoog media. Sixteen sterile seeds were placed on the solid agar medium at an appropriate spacing. The assay plates were sealed with surgical tape and wrapped in aluminum foil, and the seeds were vernalized at 4° C. for 2 days. The assay plates were incubated in a growth chamber at 22.5° C. under daily light cycles of 16 hours (30 μmol/m^2·sec) for 4 days after the vernalization. The germination inhibition potency of the derivatives was scored and compared with that of (S)-ABA. The results are summarized in Table 2 “Table 2: Arabidopsis seed germination inhibition activity of (±)-ABA derivatives.”

For `CC1=C(C)C(O)(/C=C/C(C)=C\C(=O)O)C(C)(C)CC1=O` (racemic) [(±)-3′-methyl-ABA], the “activity in rice seedling elongation assay compared to (S)-ABA” value [1] is given as “equal activity to (S)-ABA” and the “activity in (S)-ABA 8′-hydroxylase inhibition assay compared to (S)-ABA” value [2] is given as “lower activity than (S)-ABA”.

In the case of `CC1=C(c2ccccc2)C(=O)CC(C)(C)C1(O)/C=C/C(C)=C\C(=O)O` (racemic) [Example 46, (2Z,4E)-5-(3-hydroxy-2,4,4-trimethyl-6-oxo-3,4,5,6-tetrahydro-[1,1′-biphenyl]-3-yl)-3-methylpenta-2,4-dienoic acid], the “Arabidopsis seed germination inhibition potency” value [3] is reported as “−−”.
